Source: patent US11964943B2, “3,5-diarylidenyl-n-substituted-piperid-4-one-derived inhibitors of Stat3 pathway activity and uses thereof” (priority 2017, dated 2024)

What was measured:
[1] = test system: DU145 cells; test: SRB growth inhibition assay for radiosensitization; type: cell-based; details: 18 h pretreatment, then irradiation
Method: Stock cultures were trypsinised and 2500 cells were seeded into each well of 96-well, flat-bottomed microtiter plates, in a volume of 200 μl and left to adhere overnight at 37° C. The desired concentrations of IE-8 or curcumin were prepared in culture medium immediately before use. Medium in wells was removed and 200 μl of drug medium mixture was added. Three replicates were used for each drug concentration. One solvent control lane was included in each experiment. Plates were incubated for 18 h at 37° C. At the end of the drug treatment, the media was replaced with 200 μl of fresh media. Subsequently the plates were irradiated at 0, 2, 4 and 6 Gy. The plates were incubated for three days in a humidified incubator at 37° C. with 5% CO2. The media in the wells was removed and 100 μl of ice-cold 10% (wt/vol) trichloroethanoic acid (TCA) was added per well, to fix the cells. […] Plates were left at room temperature for 20 minutes, and the optical density (OD) at 540 nm was determined using a microplate reader (Thermo). Growth inhibition was expressed as the fraction of control A540 (surviving fraction) and calculated from the following equation; fraction of control A540=OD of untreated control at each radiation dose. The mean surviving fraction for each drug concentration for each radiation dose was calculated.

[2] = test system: A549 cells; test: SRB growth inhibition and combination index with cisplatin, A549; type: cell-based, human
Method: The affected fractions were calculated from the SRB or MTT assay absorbance values and were registered to derive the respective CI values and isobolograms. A CI value of less than 1 (one) indicates synergy.
(§1) The SRB assay was used to assess cell growth inhibition by IE-8 alone and in combination with cisplatin. […] For combination studies drug treatments were sequential with IE-8 applied first followed by cisplatin for 1 h. […] Absorbance was read at 540 nm and results were normalized to untreated controls. For analysis of GC50 values and statistical significance, non-linear regression analysis with a comparison of fits was performed with the GraphPad Prism 6.0 software.
as §1, with “Drug Combination studies. Sulforhodamine B (SRB) Cell Growth Inhibition Assay. The” for “The”, “8 h” for “IE-8”

[3] = test system: survivin, Bcl-2, Bcl-xL, MMP-9, cleaved PARP, cleaved caspase-3; test: Immunoblotting of Stat3 downstream targets and apoptosis markers; type: cell-based
Method: (§2) Whole cell lysates were prepared by incubation of harvested, trypsinised cells with CelLytic™ lysis buffer (Sigma-Aldrich) supplemented with 1× protease and 1× phosphatase inhibitors (Roche). Protein quantification was carried out using a protein assay kit (Bio-Rad). 40 μg of the lysates were denatured by heating for 5 min at 95° C. in sample buffer containing 100 mM Tris-Cl (pH 6.8), 4% SDS, 10% 2-mercaptoethanol, 20% glycerol, and 0.02% bromophenol blue. Precision Plus Protein Dual colour standards (Bio-Rad) were used as a molecular weight reference. For the detection of STAT3, pSTAT3, α/β tubulin, cleaved PARP, Bcl-2, Bcl-xL, FANCD2, BRCA1, EME1 and MUS81, proteins were separated on a NuPAGE 7% Tris-acetate gel (Life Technologies) and subsequently transferred to polyvinylidene difluoride membranes (Immobilon®-P transfer membrane; Millipore). […] Membranes were blocked for 1 h at ambient temperature in a blocking buffer containing 5% w/v Bovine Serum Albumin (BSA; Sigma-Aldrich) in 1×TBS, 0.1% Tween-20. All proteins were identified by incubation in a 1:1000 dilution of the respective polyclonal antibodies (Cell signaling) in blocking buffer overnight at 4° C. and subsequent incubation for 1 h with an anti-rabbit or anti-mouse secondary antibody (Cell signalling) at a dilution of 1:1000. The α/β tubulin (1:2000; Cell Signaling) and the anti-phospho-histone H2AX Antibody (1:500; Millipore) were used in the denoted dilutions. Antibody binding was visualized by enhanced chemiluminescence (Amersham) on autoradiography film (Kodak-X-Omat). Alternatively Images were captured by the GelDoc-It Imaging System Fusion Fx7 (Vilber Lourmat, Germany).
as §2, with “Immunoblotting. Whole” for “Whole”, “CelLytic™ M” for “CelLytic™”, “pSTAT3, a/0” for “pSTAT3, α/β”, “in 1×TBS” for “in 1×TBS,”, “(Cell signalling)” for “(Cell signaling)”

[4] = A2780-cisplatin resistant cells

In the case of `COc1cc(/C=C2\CN(c3ccccc3)C/C(=C\c3cc(OC)c(OC)c(OC)c3)C2=O)cc(OC)c1OC` [IE-8, 3,5-Di(3,4,5-trimethoxybenzylidene)-1-phenylpiperidin-4-one], the “radiosensitization (cell survival, SRB)” value [1] is reported as “more efficient at reducing cell survival”, the “combination index (CI) with cisplatin” value ([2]; 10 μM IE-8 1 h then cisplatin 1 h) is reported as “below 1” and the “combination index (CI) with cisplatin” value ([2]; IE-8 18 h then cisplatin 1 h, fixed ratio 1:50) is reported as “below 1”. For the same compound, the “induction of apoptosis (cleaved PARP, cleaved caspase 3, Annexin-V/PI)” value [3, 4] was “induced apoptosis”, the “inhibition of downstream Stat3 targets Bcl-xL and survivin” value [3, 4] was “capable of inhibiting” and the “downregulation of MMP-9” value ([3]; A2780-cisplatin resistant cells, IL-6 stimulated) was “downregulates the matrix metalloproteinase MMP-9”. For the same compound, the “induction of apoptosis (cleaved PARP)” value ([3]; DU145 and A549 cells, 18 h) was “induced cell death via apoptosis” and the “downregulation of survivin and Bcl-2” value ([3]; DU145 cells, 18 h) was “downregulated the transcription of key Stat3 target genes”.
